For 2 compounds, IC50 results are on record in article PMC9312876, “Therapeutic Potential of a Novel Vitamin D3 Oxime Analogue, VD1-6, with CYP24A1 Enzyme Inhibitory Activity and Negligible Vitamin D Receptor Binding” (Biomolecules, 2022).

For assay [1], the target named is T1, vitamin D receptor (VDR) (Homo sapiens, UniProt P11473).
T1 construct: full-length
T1 sequence (P11473 1-427): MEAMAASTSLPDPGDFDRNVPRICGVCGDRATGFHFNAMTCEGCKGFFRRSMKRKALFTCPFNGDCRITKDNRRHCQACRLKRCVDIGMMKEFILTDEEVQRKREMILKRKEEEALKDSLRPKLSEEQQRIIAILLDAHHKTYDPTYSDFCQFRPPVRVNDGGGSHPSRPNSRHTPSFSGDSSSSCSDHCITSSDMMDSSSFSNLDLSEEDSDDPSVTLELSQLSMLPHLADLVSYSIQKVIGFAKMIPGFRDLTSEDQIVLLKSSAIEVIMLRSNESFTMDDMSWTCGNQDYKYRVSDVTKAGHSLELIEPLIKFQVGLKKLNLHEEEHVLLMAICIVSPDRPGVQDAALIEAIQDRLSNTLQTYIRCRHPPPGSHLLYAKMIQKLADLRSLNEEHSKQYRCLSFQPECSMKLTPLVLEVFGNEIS
The assay is described as follows: fluorescence polarization competition with Fluormone VDR Red tracer (PolarScreen). Format: binding.

Assay [2] addresses T1, vitamin D receptor (VDR). Put plainly: fluorescence polarization competition with Fluormone VDR Red tracer (PolarScreen); binding only evident above […]. (In general: Fluorescence polarisation rises when a labelled molecule tumbles more slowly, as on binding a larger partner.)

What is called IC50 is the concentration at which inhibition is half-maximal. The low end stands for higher potency, the high end for lower potency. Regarding `C=C1CC[C@H](O)C/C1=C/C=C1\CCC[C@]2(C)[C@@H]([C@H](C)CCCC(C)(C)O)CC[C@@H]12` [25(OH)D3], the IC50 on vitamin D receptor (VDR) [1] amounted to 56.2 nM. As to `C=C1/C(=C\C=C2/CCC[C@]3(C)[C@@H]([C@H](C)CCC(=NOC)C(C)(C)C)CC[C@@H]23)C[C@@H](O)C[C@@H]1O` [VD1-6], the 50% inhibitory concentration (IC50) on vitamin D receptor (VDR) [2] worked out at 438 nM.
